Experimental data published in patent US10321684B2, “Use of 9-beta-D-adenosine to increase crop production” (The Regents of the University of California, priority 2009, dated 2019).

Key:
Assay type in all cases: in vivo
[1] = system: tomato plants (cv. Supersweet 100); assay: Adenosine by irrigation: vegetative and reproductive growth of tomato plants; conditions: irrigation daily
Description: This example describes the increase in fruit production by tomato plants (cv. Supersweet 100), achieved via application of adenosine by irrigation. Adenosine (9-beta-D-adenosine) obtained from Sigma Chemical Co. (Catalog No. A9251) was applied in a sufficient amount of distilled water to move the material into the root zone of ‘Supersweet 100’ tomato plants. Plants receiving treatments 2 and 3 were treated once every 10 days. Plants receiving treatments 4, 5, 6, and 7 were treated daily. The total amount of cytokinin or adenosine received by plants in each treatment by the end of experiment (75 days after planting) is given in parenthesis in the Table 1-1 below. The IPA concentration of the vermicompost tea was determined by radioimmunoassay.

[2] = system: 'Hass' avocado trees bearing an on-crop; assay: Trunk injection: spring bloom (bud break) of on-crop avocado trees; conditions: for Floral (with fruit), No. of shoots per 100 nodes / Floral (w/o fruit), No. of shoots per 100 nodes / Determinate Floral, No. of shoots per 100 nodes / Indeterminate Floral, No. of shoots per 100 nodes / Floral, No. of shoots per 100 nodes: 1 g/tree trunk injection in Jan; for Floral (with fruit), No. of shoots per 100 nodes: branches with fruit; for Floral (w/o fruit), No. of shoots per 100 nodes: branches without fruit; for Determinate Floral, No. of shoots per 100 nodes / Indeterminate Floral, No. of shoots per 100 nodes / Floral, No. of shoots per 100 nodes: counted at spring bloom; for Floral, No. of shoots per 100 nodes: total floral shoots
Description: This example describes the use of adenosine to increase spring bud break of ‘Hass’ avocado trees to increase floral intensity and avocado production. Increased bud break was achieved via trunk injection of adenosine (9-beta-D-adenosine) obtained from Sigma Chemical Co. (Catalog No. A9251), alone or with a plant growth regulator. The following treatments were injected (1 g/tree) in mid-January into the trunk of on-crop ‘Hass’ avocado trees in a commercial orchard in Irvine, Calif.: (1) adenosine (Sigma); (2) 6-BA (Sigma); (3) GA3 (ProGibb 40%, Valent BioSciences Corp.); (4) TIBA (Sigma), and (5) TIBA plus adenosine. Each material was supplied at the rate of 1 g per tree dissolved in 50 to 60 ml distilled water using two plastic syringes per tree. There were five individual tree replicates per treatment, including (6) untreated on-crop control trees. For each tree, branches (12 inches long), 1 with fruit and 1 branch without fruit in each of the four tree quadrants, were tagged.

[3] = system: 'Fina Sodea' Clementine mandarin trees; assay: Adenosine by foliar spray (canopy application): fruit number, yield and value of mandarin trees
Description: This example describes the increase in the number and yield of commercially valuable fruit of Clementine mandarin trees achieved by canopy application of adenosine. Adenosine (9-beta-D-adenosine) obtained from Sigma Chemical Co. (Catalog No. A9251) was applied (25 mg/L in 250 gallons of water per acre; 23.66 g/acre) with a 400 psi handgun sprayer one time at maximum peel thickness, which marks the end of the cell division stage of citrus fruit development, to ‘Fina Sodea’ Clementine mandarin trees.

Row | Compound | # Fruit, average value per plant ([1]; total 0.35 μg by 75 days) | # Fruiting shoots, average value per plant ([1]; total 0.35 μg by 75 days) | # Leaves, average value per plant ([1]; total 0.35 μg by 75 days) | # Veg. shoots, average value per plant ([1]; total 0.35 μg by 75 days) | Fruit diameter ([1]; total 0.35 μg by 75 days) | Main Shoot (mm), average value per plant ([1]; total 0.35 μg by 75 days) [mm] | Tap Root (mm), average value per plant ([1]; total 0.35 μg by 75 days) [mm] | Floral (with fruit), No. of shoots per 100 nodes [2] | Floral (w/o fruit), No. of shoots per 100 nodes [2] [shoots per 100 nodes] | Determinate Floral, No. of shoots per 100 nodes [2] | Indeterminate Floral, No. of shoots per 100 nodes [2] [shoots per 100 nodes] | Floral, No. of shoots per 100 nodes [2] | also measured
1 | CC(C)=CCNc1ncnc2nc[nH]c12 [IPA, isopentenyladenine] | 10 bc | 11.60 cd | 87 c | 30.80 c | 19.92 c mm | 81.00 | 20.25 | – | – | – | – | – | # Fruit, average value per plant ([1]; total 0.035 μg by 75 days): 13 ab; # Fruiting shoots, average value per plant ([1]; total 0.035 μg by 75 days): 12.40 bc; # Leaves, average value per plant ([1]; total 0.035 μg by 75 days): 99 abc; # Veg. shoots, average value per plant ([1]; total 0.035 μg by 75 days): 30.20 c; Fruit diameter ([1]; total 0.035 μg by 75 days): 21.81 b mm; Main Shoot (mm), average value per plant ([1]; total 0.035 μg by 75 days): 73.75 mm; Tap Root (mm), average value per plant ([1]; total 0.035 μg by 75 days): 25.50 mm
2 | Nc1ncnc2c1ncn2[C@@H]1O[C@H](CO)[C@@H](O)[C@H]1O [Adenosine, 9-beta-D-adenosine] | 15 a | 17.60 a | 111 a | 38.00 a | 24.13 a mm | 74.00 | 28.00 | 8 abc shoots per 100 nodes | 10 | 3 ab shoots per 100 nodes | 7 | 10 ab shoots per 100 nodes | number of floral shoots compared to the untreated on-crop control trees ([2]; single trunk injection in January): not significantly different; Total kg/tree, Medium ([3]; 25 mg/L once at maximum peel thickness, 3-year cumulative yield, diameter 50.81-57.15 mm): 37.00 kg/tree; net increase in total fruit number ([3]; adenosine applied at maximum peel thickness, numerical (non-significant)): 12,460 fruit/200 trees/acre/3 years; effect on fruit quality ([3]; any year of the 3-year study): did not have a negative effect; juice acid of fruit from treated trees ([3]; year three of the study, P=0.0163): significantly reduced; total soluble solids to acid ratio of the juice ([3]; year three of the study, P=0.0570): higher; effect on length of the main shoot or the tap root ([1]; total 0.35 μg by 75 days): did not significantly alter; more leaves than untreated control plants ([1]; total 0.35 μg by 75 days): 2.85 fold; net increase in the number of fruit per plant over the untreated control ([1]; total 0.35 μg by 75 days): 87.5%; increase of average size of individual tomato fruit over untreated control ([1]; total 0.35 μg by 75 days, transverse diameter): 61%
3 | C=C1C[C@]23C[C@@]1(O)CC[C@H]2[C@@]12C=C[C@H](O)[C@@](C)(C(=O)O1)[C@H]2[C@@H]3C(=O)O [GA3, gibberrillic acid] | – | – | – | – | – | – | – | 6 bc shoots per 100 nodes | 8 | 2 b shoots per 100 nodes | 6 | 7 b shoots per 100 nodes | –
4 | O=C(O)c1cc(I)cc(I)c1I [TIBA, 2,3,5-triiodobenzoic acid] | – | – | – | – | – | – | – | 11 ab shoots per 100 nodes | 8 | 1 b shoots per 100 nodes | 8 | 9 b shoots per 100 nodes | –
